Laboratory results as given in the NIST ThermoML archive (doi:10.1016/j.tca.2018.11.018).
Numbers after ± are expanded uncertainties.

Columns and labels:
[1] = for Triple point temperature: Crystal 2, DSC
[2] = Molar enthalpy of transition or fusion; conditions: DSC
[3] = xn = mol fraction of the nth substance listed; conditions: 100 kPa, Liquid, x2 = 0; for viscosity: Falling or rolling sphere viscometry; for mass density: Vibrating tube method

CCCC[n+]1ccccc1.[Br-] [1-butylpyridinium bromide]
Conditions | Molar enthalpy of transition or fusion [kJ/mol] | Normal melting temperature [°C]
[1], Crystal 1, DTA | – | 103.68 ± 0.7
[2], Crystal 1 | 19.7 ± 1.5 | –

CCCC[N+]1(C)CCCCC1.[Br-] [N-butyl-N-methylpiperidinium bromide]
Conditions | Molar enthalpy of transition or fusion [kJ/mol] | Normal melting temperature [°C]
[1], Crystal 1, DTA | – | 240.67 ± 0.7
[2], Crystal 2 | 0.064 | –

Conditions | Triple point temperature [K]
[1] | 339.53 ± 0.93

CC[N+]1(C)CCCCC1.[Br-] [N-ethyl-N-methylpiperidinium bromide]
Conditions | Molar enthalpy of transition or fusion [kJ/mol] | Normal melting temperature [°C]
[1], Crystal 1, DTA | – | 109.24 ± 0.7
[2], Crystal 1 | 16.5 ± 1.4 | –

CCCC[N+](CC)(CC)CC.[Br-] [butyltriethyl ammonium bromide]
Conditions | Molar enthalpy of transition or fusion, Crystal 2 [kJ/mol] | Normal melting temperature, Crystal 1, DTA [°C] | Normal melting temperature, Crystal 1, visual observation [°C]
[1] | – | 216.87 ± 0.7 | 217.0 ± 0.5
[2] | 11.2 ± 1.6 | – | –

Conditions | Triple point temperature [K]
[1] | 444.65 ± 0.93

O [water]
Conditions | Normal melting temperature [°C]
[1], Crystal, visual observation | 0.1 ± 0.3

O [water] + CCCC[N+]1(C)CCCCC1.[Br-]
[3]
Conditions | mass density [kg/m3] | viscosity [mPa·s]
298.15 K | – | 0.89 ± 0.054
303.15 K | – | 0.797 ± 0.048
308.15 K | – | 0.719 ± 0.043
313.15 K | – | 0.653 ± 0.039
318.15 K | 990.1 ± 1 | 0.596 ± 0.036
323.15 K | 987.9 ± 1 | 0.547 ± 0.033
328.15 K | 985.6 ± 1 | 0.504 ± 0.03
333.15 K | 983.2 ± 1 | 0.466 ± 0.028
338.15 K | 980.3 ± 1 | 0.433 ± 0.026
343.15 K | 978.1 ± 1 | 0.404 ± 0.024
348.15 K | 974.8 ± 1 | 0.378 ± 0.023

O [water] + CCCC[N+](CC)(CC)CC.[Br-]
[3]
Conditions | mass density [kg/m3] | viscosity [mPa·s]
298.15 K | – | 0.89 ± 0.054
303.15 K | – | 0.797 ± 0.048
308.15 K | – | 0.719 ± 0.043
313.15 K | – | 0.653 ± 0.039
318.15 K | 990.1 ± 1 | 0.596 ± 0.036
323.15 K | 987.9 ± 1 | 0.547 ± 0.033
328.15 K | 985.6 ± 1 | 0.504 ± 0.03
333.15 K | 983.2 ± 1 | 0.466 ± 0.028
338.15 K | 980.3 ± 1 | 0.433 ± 0.026
343.15 K | 978.1 ± 1 | 0.404 ± 0.024
348.15 K | 974.8 ± 1 | 0.378 ± 0.023

O [water] + CCCC[n+]1ccccc1.[Br-]
[3]
Conditions | mass density [kg/m3] | viscosity [mPa·s]
298.15 K | – | 0.89 ± 0.054
303.15 K | – | 0.797 ± 0.048
308.15 K | – | 0.719 ± 0.043
313.15 K | – | 0.653 ± 0.039
318.15 K | 990.1 ± 1 | 0.596 ± 0.036
323.15 K | 987.9 ± 1 | 0.547 ± 0.033
328.15 K | 985.6 ± 1 | 0.504 ± 0.03
333.15 K | 983.2 ± 1 | 0.466 ± 0.028
338.15 K | 980.3 ± 1 | 0.433 ± 0.026
343.15 K | 978.1 ± 1 | 0.404 ± 0.024
348.15 K | 974.8 ± 1 | 0.378 ± 0.023

O [water] + CC[N+]1(C)CCCCC1.[Br-]
[3]
Conditions | mass density [kg/m3] | viscosity [mPa·s]
298.15 K | – | 0.89 ± 0.054
303.15 K | – | 0.797 ± 0.048
308.15 K | – | 0.719 ± 0.043
313.15 K | – | 0.653 ± 0.039
318.15 K | 990.1 ± 1 | 0.596 ± 0.036
323.15 K | 987.9 ± 1 | 0.547 ± 0.033
328.15 K | 985.6 ± 1 | 0.504 ± 0.03
333.15 K | 983.2 ± 1 | 0.466 ± 0.028
338.15 K | 980.3 ± 1 | 0.433 ± 0.026
343.15 K | 978.1 ± 1 | 0.404 ± 0.024
348.15 K | 974.8 ± 1 | 0.378 ± 0.023
